Reference: PubChem BioAssay AID1259407 (Chemical Carcinogenesis Research Information System (CCRIS), 2018)
Active and inactive are the calls of the source. The rule behind the calls is not given here.

System: CCRIS mutagenicity, Ames/micronucleus/aberration tests
Assay: CCRIS mutagenicity studies
[1] = Test System: AMES SALMONELLA TYPHIMURIUM, Strain/Indicator: TA98, Metabolic Activation: NONE, Method: STANDARD PLATE
[2] = Test System: AMES SALMONELLA TYPHIMURIUM, Strain/Indicator: TA98, Metabolic Activation: RAT, LIVER, S-9, AROCLOR 1254, Method: STANDARD PLATE
[3] = Test System: AMES SALMONELLA TYPHIMURIUM, Strain/Indicator: TA100, Metabolic Activation: NONE, Method: STANDARD PLATE
[4] = Test System: AMES SALMONELLA TYPHIMURIUM, Strain/Indicator: TA100, Metabolic Activation: RAT, LIVER, S-9, PCB, Method: PREINCUBATION
[5] = Test System: AMES SALMONELLA TYPHIMURIUM, Strain/Indicator: TA1535, Metabolic Activation: NONE, Method: STANDARD PLATE
[6] = Test System: AMES SALMONELLA TYPHIMURIUM, Strain/Indicator: TA1537, Metabolic Activation: NONE, Method: STANDARD PLATE
[7] = Test System: AMES SALMONELLA TYPHIMURIUM, Strain/Indicator: TA100, Metabolic Activation: RAT, LIVER, S-9, AROCLOR 1254, Method: STANDARD PLATE
[8] = Test System: AMES SALMONELLA TYPHIMURIUM, Strain/Indicator: TA1535, Metabolic Activation: RAT, LIVER, S-9, AROCLOR 1254, Method: STANDARD PLATE
[9] = Test System: AMES SALMONELLA TYPHIMURIUM, Strain/Indicator: TA1537, Metabolic Activation: RAT, LIVER, S-9, AROCLOR 1254, Method: STANDARD PLATE
[10] = Test System: AMES SALMONELLA TYPHIMURIUM, Strain/Indicator: TA98, Metabolic Activation: NONE, Method: PREINCUBATION
[11] = Test System: AMES SALMONELLA TYPHIMURIUM, Strain/Indicator: TA100, Metabolic Activation: NONE, Method: PREINCUBATION

S=C1SSC2=NCCN12
mutagenic call (Test System: AMES SALMONELLA TYPHIMURIUM, Strain/Indicator: TA97, Metabolic Activation: NONE, Method: STANDARD PLATE): inactive; negative | mutagenic call (Test System: AMES SALMONELLA TYPHIMURIUM, Strain/Indicator: TA97, Metabolic Activation: RAT, LIVER, S-9, AROCLOR 1254, Method: STANDARD PLATE): inactive; negative | mutagenic call [1]: inactive; negative | mutagenic call [2]: inactive; negative | mutagenic call [3]: inactive; negative

CC(C)(C)OC(=O)CN=[N+]=[N-]
mutagenic call [4]: active; positive

C=C1[C@@H](C)[C@H]2[C@H](Cc3ccccc3)NC(=O)[C@]23OC(=O)/C=C/[C@H](O)CCC[C@@H](C)C/C=C/[C@H]3[C@@H]1O
mutagenic call (End Point: In vivo micronucleus, Test System: Micronucleated, binucleated and multinucleated hepatocytes, Species: Mouse, Strain/Sex: ddY/Male, Route: Intravenous): active; positive for micronucleated cells when agent administered before and after parti

CNc1snc2ccccc12
mutagenic call [1]: inactive; negative | mutagenic call (Test System: AMES SALMONELLA TYPHIMURIUM, Strain/Indicator: TA98, Metabolic Activation: S-9, Method: STANDARD PLATE): inactive; negative | mutagenic call [3]: inactive; negative | mutagenic call (Test System: AMES SALMONELLA TYPHIMURIUM, Strain/Indicator: TA100, Metabolic Activation: S-9, Method: STANDARD PLATE): inactive; negative | mutagenic call [5]: inactive; negative | mutagenic call (Test System: AMES SALMONELLA TYPHIMURIUM, Strain/Indicator: TA1535, Metabolic Activation: S-9, Method: STANDARD PLATE): inactive; negative | mutagenic call [6]: inactive; negative | mutagenic call (Test System: AMES SALMONELLA TYPHIMURIUM, Strain/Indicator: TA1537, Metabolic Activation: S-9, Method: STANDARD PLATE): inactive; negative

Cc1ccc(N=Cc2cccc3cccnc23)c(C(=O)O)c1
mutagenic call [1]: inactive; negative | mutagenic call [2]: inactive; negative | mutagenic call [3]: inactive; negative | mutagenic call [7]: inactive; negative | mutagenic call [5]: inactive; negative | mutagenic call [8]: inactive; negative | mutagenic call [6]: inactive; negative | mutagenic call [9]: inactive; negative

Cc1c2ccccc2cc2ccc3c(c12)C=CC(=O)C3=O
mutagenic call (Test System: AMES SALMONELLA TYPHIMURIUM, Strain/Indicator: TA97A, Metabolic Activation: NONE, Method: PREINCUBATION): inactive; negative | mutagenic call [10]: active; positive | mutagenic call [11]: inactive; negative | mutagenic call (Test System: AMES SALMONELLA TYPHIMURIUM, Strain/Indicator: TA102, Metabolic Activation: NONE, Method: PREINCUBATION): inactive; negative | mutagenic call (Test System: AMES SALMONELLA TYPHIMURIUM, Strain/Indicator: TA104, Metabolic Activation: NONE, Method: PREINCUBATION): inactive; negative

Cc1cc([N+](=O)[O-])c(C)c2c1[nH]c1ccc(O)cc12
mutagenic call [1]: active; positive | mutagenic call (Test System: AMES SALMONELLA TYPHIMURIUM, Strain/Indicator: TA98, Metabolic Activation: RAT LIVER S-9, AROCLOR 1254, Method: STANDARD PLATE): inactive; negative | mutagenic call [3]: inactive; negative | mutagenic call (Test System: AMES SALMONELLA TYPHIMURIUM, Strain/Indicator: TA100, Metabolic Activation: RAT LIVER S-9, AROCLOR 1254, Method: STANDARD PLATE): inactive; negative | mutagenic call [6]: active; positive | mutagenic call (Test System: AMES SALMONELLA TYPHIMURIUM, Strain/Indicator: TA1537, Metabolic Activation: RAT LIVER S-9, AROCLOR 1254, Method: STANDARD PLATE): active; positive | mutagenic call (Test System: AMES SALMONELLA TYPHIMURIUM, Strain/Indicator: TA1977, Metabolic Activation: NONE, Method: STANDARD PLATE): active; positive | mutagenic call (Test System: AMES SALMONELLA TYPHIMURIUM, Strain/Indicator: TA1977, Metabolic Activation: RAT LIVER S-9, AROCLOR 1254, Method: STANDARD PLATE): active; positive

CCCCOC(=O)/C=C\C(=O)OCCCC
mutagenic call (Test System: AMES SALMONELLA TYPHIMURIUM, Strain/Indicator: TA97A, Metabolic Activation: NONE): inactive; negative | mutagenic call (Test System: AMES SALMONELLA TYPHIMURIUM, Strain/Indicator: TA97A, Metabolic Activation: RAT, LIVER, S-9, AROCLOR 1254): inactive; negative | mutagenic call (Test System: AMES SALMONELLA TYPHIMURIUM, Strain/Indicator: TA98, Metabolic Activation: NONE): inactive; negative | mutagenic call (Test System: AMES SALMONELLA TYPHIMURIUM, Strain/Indicator: TA98, Metabolic Activation: RAT, LIVER, S-9, AROCLOR 1254): inactive; negative | mutagenic call (Test System: AMES SALMONELLA TYPHIMURIUM, Strain/Indicator: TA100, Metabolic Activation: NONE): inactive; negative | mutagenic call (Test System: AMES SALMONELLA TYPHIMURIUM, Strain/Indicator: TA100, Metabolic Activation: RAT, LIVER, S-9, AROCLOR 1254): inactive; negative | mutagenic call (Test System: AMES SALMONELLA TYPHIMURIUM, Strain/Indicator: TA102, Metabolic Activation: NONE): inactive; negative | mutagenic call (Test System: AMES SALMONELLA TYPHIMURIUM, Strain/Indicator: TA102, Metabolic Activation: RAT, LIVER, S-9, AROCLOR 1254): inactive; negative

O=C1c2ccccc2C(=O)c2c(O)c(O)cc(O)c21
mutagenic call [10]: inactive; negative | mutagenic call [2]: inactive; negative | mutagenic call (Test System: AMES SALMONELLA TYPHIMURIUM, Strain/Indicator: TA98, Metabolic Activation: RAT, LIVER, S-9, PCB, Method: PREINCUBATION): inactive; negative | mutagenic call [11]: inactive; negative | mutagenic call [7]: inactive; negative | mutagenic call [4]: inactive; negative | mutagenic call [5]: inactive; negative | mutagenic call [8]: inactive; negative | mutagenic call (Test System: AMES SALMONELLA TYPHIMURIUM, Strain/Indicator: TA1537, Metabolic Activation: NONE, Method: PREINCUBATION): active; positive | mutagenic call [6]: active; positive | mutagenic call [9]: active; positive | mutagenic call (Test System: AMES SALMONELLA TYPHIMURIUM, Strain/Indicator: TA1537, Metabolic Activation: RAT, LIVER, S-9, Method: PREINCUBATION): active; positive | mutagenic call (Test System: CHINESE HAMSTER V-79, Strain/Indicator: V-79/8-AZAGUANINE, Metabolic Activation: NONE, Method: STANDARD PLATE): active; positive | mutagenic call (Test System: UDS RODENT HEPATOCYTES, Strain/Indicator: THY INCORP (NON-S-PHASE), Method: AUTORADIOGRAPHY): active; positive
